Measured values as given in PubChem BioAssay (NCI).
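Assay format: 96-well plates, 48-hour exposure. TGI: concentration producing complete growth inhibition.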

How the values were obtained:
Experiment in all cases: inhibition of tumour cell growth, NCI panel, 48 h
[1] = tested on: HCT-15 colon
[2] = tested on: T-47D breast
[3] = tested on: NCI/ADR-RES ovarian
[4] = tested on: OVCAR-3 ovarian
[5] = tested on: RPMI-8226 leukemia
[6] = tested on: DU-145 prostate
[7] = tested on: SW-620 colon
[8] = tested on: SK-MEL-28 melanoma
[9] = tested on: 786-0 renal
[10] = tested on: HOP-92 NSCLC
[11] = tested on: RXF 393 renal
[12] = tested on: MDA-MB-435
[13] = tested on: NCI-H23 lung
[14] = tested on: SF-268 CNS
[15] = tested on: PC-3 prostate
[16] = tested on: CCRF-CEM leukemia
[17] = tested on: MDA-N
[18] = tested on: SNB-75 CNS
[19] = tested on: MDA-MB-231 breast
[20] = tested on: SK-MEL-5 melanoma
[21] = tested on: M14 melanoma
[22] = tested on: CAKI-1 renal
[23] = tested on: MOLT-4 leukemia
[24] = tested on: BT-549 breast
[25] = tested on: MALME-3M melanoma
[26] = tested on: HT29 colon
[27] = tested on: NCI-H460 lung
[28] = tested on: NCI-H226 lung
[29] = tested on: OVCAR-8 ovarian
[30] = tested on: HL-60(TB) leukemia
[31] = tested on: SK-OV-3 ovarian
[32] = tested on: SR leukemia
[33] = tested on: SNB-19 CNS
[34] = tested on: MCF7 breast
[35] = tested on: ACHN renal
[36] = tested on: A498 renal
[37] = tested on: KM12 colon
[38] = tested on: SF-539 CNS
[39] = tested on: K-562 leukemia
[40] = tested on: SN12C renal
[41] = tested on: SK-MEL-2 melanoma
[42] = tested on: OVCAR-4 ovarian
[43] = tested on: OVCAR-5 ovarian
[44] = tested on: UACC-62 melanoma
[45] = tested on: HS 578T breast
[46] = tested on: LOX IMVI melanoma
[47] = tested on: HCC-2998 colon
[48] = tested on: NCI-H522 lung
[49] = tested on: SF-295 CNS
[50] = tested on: EKVX NSCLC
[51] = tested on: TK-10 renal
[52] = tested on: HCT-116 colon
[53] = tested on: A549 NSCLC
[54] = tested on: UACC-257 melanoma
[55] = tested on: UO-31 renal
[56] = tested on: COLO 205 colon
[57] = tested on: U251 CNS
[58] = tested on: IGROV1 ovarian
[59] = tested on: HOP-62 NSCLC

c1ccc(NNN2NC(c3ccccc3)C2c2ccccc2)cc1 (stereo not given)
TGI [1]: > 100 µM
TGI [2]: > 100 µM
TGI [3]: > 100 µM
TGI [4]: > 100 µM
TGI [5]: > 100 µM
TGI [6]: > 100 µM
TGI [7]: > 100 µM
TGI [8]: > 100 µM
TGI [9]: > 100 µM
TGI [10]: > 100 µM
TGI [11]: > 100 µM
TGI [12]: > 100 µM
TGI [13]: > 100 µM
TGI [14]: > 100 µM
TGI [15]: > 100 µM
TGI [16]: > 100 µM
TGI [17]: > 100 µM
TGI [18]: > 100 µM
TGI [19]: > 100 µM
TGI [20]: > 100 µM
TGI [21]: > 100 µM
TGI [22]: > 100 µM
TGI [23]: > 100 µM
TGI [24]: > 100 µM
TGI [25]: > 100 µM
TGI [26]: > 100 µM
TGI [27]: > 100 µM
TGI [28]: > 100 µM
TGI [29]: > 100 µM
TGI [30]: > 100 µM
TGI [31]: > 100 µM
TGI [32]: > 100 µM
TGI [33]: > 100 µM
TGI [34]: > 100 µM
TGI [35]: > 100 µM
TGI [36]: > 100 µM
TGI [37]: > 100 µM
TGI [38]: > 100 µM
TGI [39]: > 100 µM
TGI [40]: > 100 µM
TGI [41]: > 100 µM
TGI [42]: > 100 µM
TGI [43]: > 100 µM
TGI [44]: > 100 µM
TGI [45]: > 100 µM
TGI [46]: > 100 µM
TGI [47]: > 100 µM
TGI [48]: > 100 µM
TGI [49]: > 100 µM
TGI [50]: > 100 µM
TGI [51]: > 100 µM
TGI [52]: > 100 µM
TGI [53]: > 100 µM
TGI [54]: > 100 µM
TGI [55]: > 100 µM
TGI [56]: > 100 µM
TGI [57]: > 100 µM

COc1ccc(OC)c(N2C(=O)/C(=C\c3ccccc3)SC2c2cc(OC)c(OC)c(OC)c2)c1 (stereo not given)
TGI [1]: > 100 µM
TGI [2]: > 100 µM
TGI [3]: > 100 µM
TGI [4]: > 100 µM
TGI [5]: > 100 µM
TGI [6]: > 100 µM
TGI [7]: > 100 µM
TGI [8]: > 100 µM
TGI [9]: > 100 µM
TGI [10]: > 100 µM
TGI [11]: > 31.4 µM
TGI [12]: > 75 µM
TGI [13]: > 100 µM
TGI [14]: > 100 µM
TGI [15]: > 100 µM
TGI [16]: > 100 µM
TGI [17]: 52.1 µM
TGI [18]: > 100 µM
TGI [19]: > 100 µM
TGI [20]: > 100 µM
TGI [21]: > 100 µM
TGI [22]: > 100 µM
TGI [23]: > 100 µM
TGI [24]: > 100 µM
TGI [25]: > 100 µM
TGI [26]: > 100 µM
TGI [28]: > 100 µM
TGI [29]: > 100 µM
TGI [30]: > 100 µM
TGI [31]: > 100 µM
TGI [32]: > 100 µM
TGI [33]: > 100 µM
TGI [34]: > 42.7 µM
TGI [35]: 6.85 µM
TGI [58]: > 100 µM
TGI [36]: > 100 µM
TGI [37]: > 100 µM
TGI [39]: > 100 µM
TGI [40]: > 100 µM
TGI [41]: > 100 µM
TGI [42]: > 100 µM
TGI [43]: > 100 µM
TGI [45]: > 100 µM
TGI [59]: > 100 µM
TGI [46]: > 100 µM
TGI [47]: > 100 µM
TGI [48]: 74.9 µM
TGI [49]: > 100 µM
TGI [50]: > 100 µM
TGI [51]: > 100 µM
TGI [52]: > 100 µM
TGI [53]: > 100 µM
TGI [54]: > 100 µM
TGI [55]: > 100 µM
TGI [56]: > 100 µM
TGI [57]: > 100 µM

COC1CC(C)(N)C(O)C(C)O1 (stereo not given)
TGI [1]: > 100 µM
TGI [2]: > 100 µM
TGI [3]: > 100 µM
TGI [4]: > 100 µM
TGI [5]: > 100 µM
TGI [6]: > 100 µM
TGI [7]: > 100 µM
TGI [8]: > 100 µM
TGI [9]: > 100 µM
TGI [10]: > 100 µM
TGI [11]: > 100 µM
TGI [12]: > 100 µM
TGI [13]: > 100 µM
TGI [14]: > 100 µM
TGI [15]: > 100 µM
TGI [16]: > 100 µM
TGI [17]: > 100 µM
TGI [18]: > 100 µM
TGI [19]: > 100 µM
TGI [20]: > 100 µM
TGI [21]: > 100 µM
TGI [22]: > 100 µM
TGI [23]: > 100 µM
TGI [24]: > 100 µM
TGI [25]: > 100 µM
TGI [26]: > 100 µM
TGI [27]: > 100 µM
TGI [28]: > 100 µM
TGI [29]: > 100 µM
TGI [30]: > 100 µM
TGI [31]: > 100 µM
TGI [32]: > 100 µM
TGI [33]: > 100 µM
TGI [34]: > 100 µM
TGI [35]: > 100 µM
TGI [58]: > 100 µM
TGI [36]: > 100 µM
TGI [37]: > 100 µM
TGI [38]: > 100 µM
TGI [39]: > 100 µM
TGI [40]: > 100 µM
TGI [41]: > 100 µM
TGI [44]: > 100 µM
TGI [45]: > 100 µM
TGI [59]: > 100 µM
TGI [46]: > 100 µM
TGI [47]: > 100 µM
TGI [48]: > 100 µM
TGI [49]: > 100 µM
TGI [50]: > 100 µM
TGI [51]: > 100 µM
TGI [52]: > 100 µM
TGI [53]: > 100 µM
TGI [54]: > 100 µM
TGI [55]: > 100 µM
TGI [56]: > 100 µM
TGI [57]: > 100 µM
